Reference: PubChem BioAssay (NCI)
“And” between values parts separate entries of the source, which are not always exact repeats. Equal entries are not always repeated.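 Where inhibition never reached the appropriate level, the endpoint shown equals the highest concentration tested. Otherwise, values were interpolated linearly from a five-concentration, 48-hour dose response in 96-well plates. GI50 = concentration required for 50% inhibition of growth. Definition used: TGI = concentration required for complete inhibition of growth.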

Tested on: MDA-MB-468 breast
Assay: NCI anticancer screen, dose series, 48 h

Structure (SMILES)	GI50	TGI [µM]
COc1ccc(/C=C\c2cc(OC)c(OC)c(OC)c2)c(NS(=O)(=O)c2ccc(C(C)(C)C)cc2)c1O	0.304 µM	22.7
CCOc1ccc(Nc2nc(-c3c(C)nc4ncccn34)cs2)cc1	0.303 µM	15
CNCc1cccc2c1OCCOCCOCCC(C)S(=O)(=O)c1ccc(cc1)-c1cnc(N)c(n1)C(=O)N2 (centres undefined)	1.29 µM	3.71
CNCc1ccc(-c2[nH]c3cc(F)cc4c3c2CCNC4=O)cc1	10.8 µM	25.2
NC(=O)c1ncn(C2OC(CO)C(O)C2O)c1N (centres undefined)	75.6 µM	> 100
Cc1ccnc(Nc2ccc([N+](=O)[O-])c(NCCN3CCOCC3)n2)c1	0.0185 µM and 0.0273 µM	
Clc1ccc2c(NCCCN3CCN(c4nc(N5CCOCC5)nc5ccccc45)CC3)ccnc2c1	1.83 µM	3.66
O=C(N/N=C/c1ccc(F)cc1)c1ccc(C(F)(F)F)nc1Nc1cccc(C(F)(F)F)c1	0.327 µM	1.51
O=C(OC[C@@H]1CO1)c1cccc2c(=O)c3ccccc3[nH]c12	0.883 µM	2.79
CCN1CCN(c2nc(NNC(=O)c3ccccc3)nc(N3CCN(C(c4ccccc4)c4ccccc4)CC3)n2)CC1	1.94 µM	4.69
COc1cccc(C2C(C#N)=C(N)Oc3cc4c(cc32)OCO4)c1 (centres undefined)	0.0244 µM	0.665
CC1=C2[C@@H](CC1)[C@]1(C)O[C@@](C3CC3)(C[C@H]1OC(=O)CO)[C@H]2OC(=O)/C=C/c1ccccc1	14.6 µM	30.6
COc1cc(OC)cc(-c2ccc(-c3ccc(C(=N)N)cn3)s2)c1	1.72 µM	3.32
C#Cc1cccc(NC(=O)C2CCCN(C(=O)CCl)C2)c1 (centres undefined)	> 82.5 µM	> 82.5
COc1cc(/C=C\c2cc(OC)c(OC)c(OC)c2)cc(NS(=O)(=O)c2ccc(Cl)cc2)c1OC	0.271 µM	19.4
COC(=O)c1ccc2[nH]c(O)c(C(=Nc3ccc(N(C)C(=O)CN4CCN(C)CC4)cc3)c3ccccc3)c2c1	1.28 µM	2.99
NC(N)=N/N=C(/c1ccccc1)c1ccccc1F		4.94
Cn1ccnc1C(=O)/C=C/c1ccc(C(=O)Nc2c(F)c(F)c(F)c(F)c2F)cc1	1.72 µM	4.33
CCN(CC)CCNc1ccc([N+](=O)[O-])c2sc3cc(Cl)ccc3c(=O)c12	17.3 µM	61.6
N#CC(NC(=O)CCl)=C(Cl)Cl	1.33 µM	3.48
CC1=C(CNO)C2=C(C)C3(CC3)[C@@](C)(O)C(=O)C2=C1	0.319 µM	0.92
N#CCC1(n2cc(-c3ncnc4[nH]ccc34)cn2)CN(C2CCN(C(=O)c3ccnc(C(F)(F)F)c3F)CC2)C1	44.2 µM	> 100
COc1ccc(Cc2nc3cc(OC)c(OC)cc3c(=O)[nH]2)cc1	3.32 µM	17.1
